From patent US20230416307A1, “[…] PEPTIDES FOR ENHANCING VIRAL PRODUCTION” (Synvivia, Inc., priority 2022, published 2023)

Legend:
AAV2 [1] = assay: Biological titer of AAVs packaged in cells expressing a CP (GFP-positive transduced HEK293 cells); format: cell-based, adeno-associated virus; settings: FIG. 20B; HEK293 transduction; cells expressing individual CP relative to no CP expression
Protocol: (§1) FIG. 20. Exemplary bar charts showing fold improvement of physical titer and/or biological titer for various CPs. […] The payload being packaged during AAV production is GFP only. The cyclic peptide generator is located on a separate DNA, is only expressed by the host cell, and is not able to be packaged. Physical titer is quantified by qPCR or ddPCR and expressed as viral genomes produced per mL (VG/ml) of AAV packaging cells and media. […] Biological titer is measured in vitro by transducing a standardized number of wild-type (WT) mammalian (HEK293) cells with diluted AAVs harvested after packaging with or without CP expression. The transductants are identified by GFP payload expression. The fold improvement is calculated by dividing the percentage of GFP expressing (transduced) cells after transduction with AAVs packaged in cells expressing a CP by the percentage of GFP expressing (transduced) cells after transduction with AAVs packaged in cells that are not expressing a CP.
HEK-293T were reseeded in a 24 well tissue culture treated plate at a density of 1-2*10^4 cells/well in 0.5 mL of DMEM with 10% FBS. Cells were cultured overnight. 10-fold serial dilutions of prepared AAV2 particle solutions using DMEM with 10% FBS were used to infect the HEK-293T cells. Dilutions ranged from 1:10 to 1:10000. On Day 3 after infection, cells were detached using Trypsin/EDTA and analyzed for eGFP expression by image-based cytometry.
(§2) 50-70% confluent HEK-293T cells (˜10^6 total cells) grown in DMEM supplemented with 5% FBS were quadruple transfected with pHelper Vector, pAAV-ZsGreenl Vector, AAVpro® Packaging Rep-Cap Plasmid (AAV2), and pTargeT Mammalian Expression Vector with cloned individual cyclic peptide generator of interest in a 1:1:1:1 molar ratio normalized to the plasmid size using JetOptimus Transfection Reagent in 100 mm TC treated petri dish. AAV preparation is conducted as described above. Biological viral titer measurement is performed as described above.
(§3) • 1. A 100-mm cell culture dish was reseeded with 4.0×10^6 Hek293T cells in high glucose DMEM culture medium supplemented with 10% FBS. • 2. One day after plating, the cells (70-80% confluence) were co-transfected with 3.2ug pRC2 which encodes Rep and Cap genes (SEQ ID NO: 1-7), 4.6ug pHelper which encodes Adenovirus helper genes (SEQ ID NO: 16-19, 22, 23), 2.2ug payload vector, and 1-100ng engineered cyclic peptide expression vector (if using). A jetOPTIMUS DNA transfection reagent i used during the transfection protocol (from Polyplus). • 3. 12-16 hours after transfection, media was replaced with low glucose DMEM culture medium supplemented with 1% FBS, 1×Glutamax, 10 mM HEPES, and 0.075% sodium bicarbonate. • 4. Cells and media were harvested 4 days after transfection and frozen in 1 mL aliquots. • 5. Frozen aliquots were thawed and lysed using AAVMax Lysis Reagent (Life Technologies, USA, A50520). 100 uL of AAVMax Lysis buffer was added to 900 uL of cell and media. Mixture was incubated for 2 hours with rotating. Debris was pelleted at 5,000xg for 15 minutes. AAV containing supernatant was collected. • 6. The physical and biological titers of the harvested AAV samples were determined by qPCR and biological viral titer measurement as described in Example 1.
The fold improvement in biological titer was calculated by dividing the percentage of GFP expressing (transduced) cells after transduction with AAVs packaged in cells expressing a CP by the percentage of GFP expressing (transduced) cells after transduction with AAVs packaged in cells that are not expressing a CP.

AAV2 [2] = assay: Physical titer (qPCR or ddPCR, VG/ml) of AAVs packaged in cells expressing a CP; format: cell-based, adeno-associated virus; settings: FIG. 20A; GFP payload; cells expressing individual CP relative to no CP expression
Protocol: as §1
Primers binding the eGFP reporter protein were used to measure the virus titer with quantitative polymerase chain reaction (qPCR). Before releasing the viral DNA from the particles, all extra-viral DNA was removed by digestion with DNase I. Then, the viral DNA was released by alkaline lysis. The qPCR was performed using the PowerUp™ SYBR™ Green Master Mix (Applied Biosystems), and primers against the zsGreen obtained from Integrated DNA Technologies. The extracted viral DNA and a serial dilution of a viral plasmid containing z as a standard were measured using the CFX96 Touch Real-Time PCR Detection System and the CFX Maestro Software (Bio-Rad, Hercules, CA).
as §2, §3
The physical titer fold improvement was calculated by dividing the physical titer of AAVs packaged in cells expressing a CP by the physical titer of cells that are not expressing a CP.

## CSESCP: engineered cyclic peptide, SEQ ID NO: 57 (cyclic; Cyclic peptide that was found to enhance AAV viral titer)
AAV2 [1]
  fold improvement in biological titer of AAVs: fold improvements in biological titer
AAV2 [2]
  fold improvement in physical titer of AAVs: fold improvements in physical titer

## CSDPSA: engineered cyclic peptide, SEQ ID NO: 56 (cyclic; Cyclic peptide that was found to enhance AAV viral titer; We observed log10 enrichment score of 3.653, mean of 76 experimental replicates. We observed excellent mean log10 enrichment scores for this cyclic peptide across multiple AAV serotypes: AAV1_3.5; AAV2_4.0; AAV5_3.0; AAV6_3.4. Cyclo-CSDPSA possesses the following motifs: POL_HYD_POL-motif; NEG_HYD_POL-motif; POL_NEG_HYD-motif; POL_POL_NEG-m)
AAV2 [1]
  fold improvement in biological titer of AAVs: fold improvements in biological titer
AAV2 [2]
  fold improvement in physical titer of AAVs: fold improvements in physical titer

## CAAAS: engineered cyclic peptide, SEQ ID NO: 48 (cyclic; Cyclic peptide that was found to enhance AAV viral titer)
AAV2 [1]
  fold improvement in biological titer of AAVs: fold improvements in biological titer
AAV2 [2]
  fold improvement in physical titer of AAVs: fold improvements in physical titer

## CKDYFS: engineered cyclic peptide expressed from a generator plasmid, SEQ ID NO: 34 (cyclic; Cyclic peptide that was found to increase AAV viral titer.)
AAV2 [2]
  fold improvement in physical titer of AAVs: fold improvements in physical titer

## CRRHYA: engineered cyclic peptide, SEQ ID NO: 230
AAV2 [1]
  fold improvement in biological titer of AAVs: fold improvements in biological titer

## CYVTTD: engineered cyclic peptide, SEQ ID NO: 62 (cyclic; Cyclic peptide that was found to enhance AAV viral titer; We observed log10 enrichment score of 3.986, mean of 70 experimental replicates. We observed excellent mean log10 enrichment scores for this cyclic peptide across multiple AAV serotypes: AAV1_4.2; AAV2_4.1; AAV5_3.6; AAV6_3.9. Cyclo-CYVTTD possesses the following motifs: ARO_HYD_POL-motif; POL_POL_NEG-motif; NEG_POL_ARO-motif.)
AAV2 [1]
  fold improvement in biological titer of AAVs: fold improvements in biological titer
AAV2 [2]
  fold improvement in physical titer of AAVs: fold improvements in physical titer

## CYPLH: engineered cyclic peptide, SEQ ID NO: 60 (cyclic; Cyclic peptide that was found to enhance AAV viral titer)
AAV2 [1]
  fold improvement in biological titer of AAVs: fold improvements in biological titer
AAV2 [2]
  fold improvement in physical titer of AAVs: fold improvements in physical titer

## CSVPY: engineered cyclic peptide, SEQ ID NO: 58 (cyclic; Cyclic peptide that was found to enhance AAV viral titer)
AAV2 [1]
  fold improvement in biological titer of AAVs: fold improvements in biological titer

## CYSPF: engineered cyclic peptide, SEQ ID NO: 61 (cyclic; Cyclic peptide that was found to enhance AAV viral titer)
AAV2 [1]
  fold improvement in biological titer of AAVs: fold improvements in biological titer

## CQSRS: engineered cyclic peptide, SEQ ID NO: 54 (cyclic; Cyclic peptide that was found to enhance AAV viral titer)
AAV2 [2]
  fold improvement in physical titer of AAVs: fold improvements in physical titer

## CTCKK: engineered cyclic peptide, SEQ ID NO: 59 (cyclic; Cyclic peptide that was found to enhance AAV viral titer)
AAV2 [2]
  fold improvement in physical titer of AAVs: fold improvements in physical titer

## CETDV: engineered cyclic peptide, SEQ ID NO: 52 (cyclic; Cyclic peptide that was found to enhance AAV viral titer)
AAV2 [1]
  fold improvement in biological titer of AAVs: fold improvements in biological titer

## CQVTRM: engineered cyclic peptide, SEQ ID NO: 55 (cyclic; Cyclic peptide that was found to enhance AAV viral titer; We observed log10 enrichment score of 3.258, mean of 74 experimental replicates. We observed excellent mean log10 enrichment scores for this cyclic peptide across multiple AAV serotypes: AAV1_3.4; AAV2_3.3; AAV5_3.2; AAV6_3.1. Cyclo-CQVTRM possesses the following motifs: POL_HYD_POL-motif; POL_POL_HYD-motif; POS_HYD_POL-motif.)
AAV2 [1]
  fold improvement in biological titer of AAVs: fold improvements in biological titer
AAV2 [2]
  fold improvement in physical titer of AAVs: fold improvements in physical titer

## CARFR: engineered cyclic peptide, SEQ ID NO: 51 (cyclic; Cyclic peptide that was found to enhance AAV viral titer)
AAV2 [1]
  fold improvement in biological titer of AAVs: fold improvements in biological titer

## CANMPY: engineered cyclic peptide, SEQ ID NO: 50 (cyclic; Cyclic peptide that was found to enhance AAV viral titer; We observed log10 enrichment score of 2.959, mean of 79 experimental replicates. We observed excellent mean log10 enrichment scores for this cyclic peptide across multiple AAV serotypes: AAV1_3.0; AAV2_3.1; AAV5_2.8; AAV6_2.7. This CP possesses the following motifs: POL_HYD_POL-motif; HYD_ARO_POL-motif; POL_HYD_HYD-motif.)
AAV2 [1]
  fold improvement in biological titer of AAVs: fold improvements in biological titer

## CPKNP: engineered cyclic peptide, SEQ ID NO: 53 (cyclic; Cyclic peptide that was found to enhance AAV viral titer)
AAV2 [2]
  fold improvement in physical titer of AAVs: fold improvements in physical titer

## CADTV: engineered cyclic peptide, SEQ ID NO: 49 (cyclic; Cyclic peptide that was found to enhance AAV viral titer)
AAV2 [2]
  fold improvement in physical titer of AAVs: fold improvements in physical titer
